From US20080248511A1, “METHODS TO QUENCH LIGHT FROM OPTICAL REACTIONS” (priority 2007, published 2008)

Columns and labels:
firefly luciferase = firefly luciferase (Photinus pyralis, UniProt P08659); assay: Non-detergent compound screen, firefly luciferase (Example 6); format: biochemical; details: 0.5% Tergitol NP-9, 0.03% BDDABr; for remaining activity at 23 µM: inhibitor 23 μM; for remaining activity at 23 µM / remaining activity at 153 µM / remaining activity at 1000 µM / remaining activity at 10 µM / remaining activity at 100 µM: read-out: Retained Firefly Luciferase Value (%); for remaining activity at 153 µM: inhibitor 153 μM
Procedure: (§1) Each compound was diluted into 200 mM MOPS pH 6.7, 4 μM MgSO4, 1 mM CDTA, 0.5% Tergitol NP-9, 0.05% Mazu-DF-204, 0.03% BDDABr, 30 mM thiourea, 1 mM bis-(2-mercaptoethylsulfone) (BMS), 4 μM CoA, and 1 μM 5-fluoroluciferin. Just prior to the luciferase reaction, 0.1% Prionex® (Pentapharm) and 2.9 μM coelenterazine-h (Promega) were added to each solution.
(§2) The firefly luciferase and Renilla luciferase enzymes were diluted as described in Examples 3 and 5. The luciferase reactions were initiated by adding 50 μl of the firefly luciferase and Renilla luciferase enzyme solution to 50 μl of reagent solution. The reactions were performed as described above. The retained Renilla and firefly luciferase-mediated luminescence and selectivity values for each inhibitor tested are listed in Table 6.

Renilla luciferase = molecular target: T1, Renilla luciferase (Renilla reniformis, UniProt P27652); assay: Non-detergent compound screen, Renilla luciferase (Example 6); format: biochemical; details: for remaining activity at 23 µM / remaining activity at 153 µM / remaining activity at 1000 µM / remaining activity at 10 µM / remaining activity at 100 µM / Retained Renilla Luciferase Value (%): 0.5% Tergitol NP-9, 0.03% BDDABr; for remaining activity at 23 µM / remaining activity at 153 µM / remaining activity at 1000 µM / remaining activity at 10 µM / remaining activity at 100 µM: read-out: Retained Renilla Luciferase Value (%)
T1 sequence (P27652 1-311): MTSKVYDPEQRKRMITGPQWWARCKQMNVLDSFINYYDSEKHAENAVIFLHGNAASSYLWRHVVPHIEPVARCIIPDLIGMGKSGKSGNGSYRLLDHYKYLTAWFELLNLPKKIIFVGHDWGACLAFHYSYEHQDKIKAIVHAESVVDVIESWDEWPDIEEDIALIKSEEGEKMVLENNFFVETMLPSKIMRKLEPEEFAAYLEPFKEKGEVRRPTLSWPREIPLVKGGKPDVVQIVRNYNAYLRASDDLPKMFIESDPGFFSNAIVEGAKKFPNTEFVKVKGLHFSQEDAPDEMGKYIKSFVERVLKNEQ
Procedure: as §1, §2

Chain of firefly luciferase (P08659 whole entry): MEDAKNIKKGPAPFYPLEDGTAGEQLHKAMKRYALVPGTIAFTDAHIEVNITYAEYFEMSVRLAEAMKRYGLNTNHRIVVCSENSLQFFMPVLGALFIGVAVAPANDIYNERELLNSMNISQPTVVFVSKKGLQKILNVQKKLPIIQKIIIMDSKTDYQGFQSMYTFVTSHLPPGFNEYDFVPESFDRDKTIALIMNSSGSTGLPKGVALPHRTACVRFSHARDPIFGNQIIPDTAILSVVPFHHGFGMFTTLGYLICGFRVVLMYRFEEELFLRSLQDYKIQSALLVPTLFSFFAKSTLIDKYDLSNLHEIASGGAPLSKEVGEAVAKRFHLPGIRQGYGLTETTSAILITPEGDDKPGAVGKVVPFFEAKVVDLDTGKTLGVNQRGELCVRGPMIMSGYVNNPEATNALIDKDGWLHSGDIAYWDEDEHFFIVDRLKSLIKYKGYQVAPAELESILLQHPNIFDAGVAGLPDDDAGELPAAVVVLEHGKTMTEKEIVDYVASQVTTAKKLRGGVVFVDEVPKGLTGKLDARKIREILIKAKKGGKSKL

Structure (SMILES) | remaining activity at 23 µM (firefly luciferase) [%] | remaining activity at 153 µM (firefly luciferase) [%] | remaining activity at 1000 µM (firefly luciferase; inhibitor 1000 μM) [%] | inhibitor of Renilla luciferase, grade in words (Renilla luciferase) | Selectivity Value (Renilla luciferase; inhibitor 23 μM) | remaining activity at 23 µM (Renilla luciferase; inhibitor 23 μM) [%] | Selectivity Value (Renilla luciferase; inhibitor 153 μM) | remaining activity at 153 µM (Renilla luciferase; inhibitor 153 μM) [%] | Selectivity Value (Renilla luciferase; inhibitor 1000 μM) | remaining activity at 1000 µM (Renilla luciferase; inhibitor 1000 μM) [%] | remaining activity at 10 µM (firefly luciferase; inhibitor 10 μM) [%] | remaining activity at 100 µM (firefly luciferase; inhibitor 100 μM) [%] | Selectivity Value (Renilla luciferase; inhibitor 10 μM) | remaining activity at 10 µM (Renilla luciferase; inhibitor 10 μM) [%] | Selectivity Value (Renilla luciferase; inhibitor 100 μM) | remaining activity at 100 µM (Renilla luciferase; inhibitor 100 μM) [%] | also measured
COc1ccc(COC(=O)/C=C/c2ccc3[nH]cc(CCN(C)C)c3c2)cc1 [Compound 3045, (E)-4-methoxybenzyl 3-(3-(2-(dimethylamino)ethyl)-1H-indol-5-yl)acrylate] | 100 | 100 | 98 | suitable inhibitors of Renilla luciferase | 1.0 | 97 | 1.0 | 98 | 1.3 | 74.7 |  |  |  |  |  |  | 
CCCCCCNC(=O)/C=C/c1ccc2[nH]cc(CCN(C)C)c2c1 [Compound 3050, (E)-3-(3-(2-(dimethylamino)ethyl)-1H-indol-5-yl)-N-hexylacrylamide] | 102 | 102 | 102 | suitable inhibitors of Renilla luciferase | 1.1 | 93 | 1.0 | 99 | 1.9 | 55 |  |  |  |  |  |  | 
C=C(C(=O)NCc1ccc(OC)cc1)c1ccc2ncccc2c1 [Compound 3053, N-(4-methoxybenzyl)-2-(quinolin-6-yl)acrylamide] | 100 | 97 | 91 | suitable inhibitors of Renilla luciferase | 1.1 | 95 | 1.1 | 90 | 1.1 | 84.7 |  |  |  |  |  |  | 
COc1ccc(CNC(=O)/C(C#N)=C/CCCCCCCBr)cc1 [Compound 3059, (E)-10-bromo-2-cyano-N-(4-methoxybenzyl)dec-2-enamide] | 101 | 101 | 101 | suitable inhibitors of Renilla luciferase | 1.02 | 99 | 1.05 | 96 | 1.07 | 94.6 |  |  |  |  |  |  | 
COc1cc(OC)c(CNC(=O)/C=C/c2ccc3[nH]cc(CCN(C)C)c3c2)c(OC)c1 [Compound 3073, (E)-3-(3-(2-(dimethylamino)ethyl)-1H-indol-5-yl)-N-(2,4,6-trimethoxybenzyl)acrylamide] |  |  | 101 | inhibitors of Renilla luciferase |  |  |  |  | 2.9 | 34.5 | 101 | 100 | 0.99 | 102 | 1.5 | 87 | 
CN(C)CCc1c[nH]c2ccc(/C=C/C(=O)NCc3ccc([N+](=O)[O-])cc3)cc12 [Compound 3063, (E)-3-(3-(2-(dimethylamino)ethyl)-1H-indol-5-yl)-N-(4-nitrobenzyl)acrylamide] |  |  | 102 | excellent inhibitors of Renilla luciferase |  |  |  |  | 33 | 3.1 | 102 | 102 | 1.6 | 63 | 5.4 | 19 | 
COc1ccc(CNC(=O)/C(C#N)=C/c2ccc3[nH]cc(CCN(C)C)c3c2)cc1 [Compound 3044, (E)-2-cyano-3-(3-(2-(dimethylamino)ethyl)-1H-indol-5-yl)-N-(4-methoxybenzyl)acrylamide] |  |  | 132 | inhibitors of Renilla luciferase |  |  |  |  | 18.9 | 7.6 | 99 | 100 | 1.2 | 85 | 2.8 | 36 | 
COc1ccc(CCNC(=O)/C=C/c2ccc3[nH]cc(CCN(C)C)c3c2)cc1 [Compound 3062, (E)-3-(3-(2-(dimethylamino)ethyl)-1H-indol-5-yl)-N-(4-methoxyphenethyl)acrylamide] |  |  | 99 | excellent inhibitors of Renilla luciferase |  |  |  |  | 19.4 | 5.1 | 100 | 98 | 1.4 | 74 | 3.3 | 30 | 
COc1ccc(CNC(=O)/C=C/c2ccc3[nH]cc(CCCN(C)C)c3c2)cc1 [Compound 3071, (E)-3-(3-(3-(dimethylamino)propyl)-1H-indol-5-yl)-N-(4-methoxybenzyl)acrylamide] |  |  | 100 | excellent inhibitors of Renilla luciferase |  |  |  |  | 40 | 2.5 | 101 | 101 | 1.8 | 57 | 6.7 | 15 | 
COc1ccc(CNC(=O)/C=C/c2ccc3[nH]ccc3c2)cc1 [Compound 3056, (E)-3-(1H-indol-5-yl)-N-(4-methoxybenzyl)acrylamide] |  |  | 89 | inhibitors of Renilla luciferase |  |  |  |  | 2.7 | 32.6 | 101 | 100 | 1.1 | 93 | 1.3 | 79 | 
CCCCCCCC[N+](C)(C)CCc1c[nH]c2ccc(/C=C/C(=O)NCc3ccc(OC)cc3)cc12.[I-] [Compound 3070, (E)-N-(2-(5-(3-(4-methoxybenzylamino)-3-oxoprop-1-enyl)-1H-indol-3-yl)ethyl)-N,N-dimethyloctan-1-ammonium iodide] |  |  |  | excellent inhibitors of Renilla luciferase |  |  |  |  | 78.2 |  |  |  | 3.3 |  | 16 |  | Retained Firefly Luciferase Value (%) (firefly luciferase; inhibitor 10 μM): 99%; Retained Firefly Luciferase Value (%) (firefly luciferase; inhibitor 100 μM): 96%; Retained Firefly Luciferase Value (%) (firefly luciferase; inhibitor 1000 μM): 86%; Retained Renilla Luciferase Value (%) (Renilla luciferase; inhibitor 10 μM): 30%; Retained Renilla Luciferase Value (%) (Renilla luciferase; inhibitor 100 μM): 6%; Retained Renilla Luciferase Value (%) (Renilla luciferase; inhibitor 1000 μM): 1.1%
COc1ccc(CNC(=O)/C=C/c2ccc3ncccc3c2)cc1 [Compound 3046, (E)-N-(4-methoxybenzyl)-3-(quinolin-6-yl)acrylamide] |  |  | 83 | inhibitors of Renilla luciferase |  |  |  |  | 3.4 | 24.5 | 100 | 99 | 1.0 | 96 | 1.3 | 78 | 
